The NIST ThermoML archive (doi:10.1021/je0602519)
± gives the expanded uncertainty stated by the source.

Assays:
[1] = Liquid; for viscosity / mass density: 101 kPa; for mass density: Pycnometric method; for speed of sound: 101.33 kPa, Frequency=2 MHz, Linear variable-path acoustic interferometer
[2] = xn = mol fraction of the nth substance listed; conditions: 101 kPa, Liquid, x1 = 1; for speed of sound: Frequency=2 MHz, Linear variable-path acoustic interferometer; for mass density: Pycnometric method

Compound | viscosity ([1]; 303.15 K) [mPa·s] | mass density ([1]; 303.15 K) [kg/m3] | speed of sound ([1]; 303.15 K) [m/s] | viscosity ([1]; 313.15 K) [mPa·s] | mass density ([1]; 313.15 K) [kg/m3] | speed of sound ([1]; 313.15 K) [m/s] | speed of sound ([2]; 303.15 K) [m/s] | mass density ([2]; 303.15 K) [kg/m3] | viscosity ([2]; 303.15 K) [mPa·s] | speed of sound ([2]; 313.15 K) [m/s] | mass density ([2]; 313.15 K) [kg/m3] | viscosity ([2]; 313.15 K) [mPa·s]
CCCCCCCCCCO [decan-1-ol] | 9.716 ± 0.37 | 822.87 ± 0.29 | 1366 ± 3 | 6.82 ± 0.28 | 815.97 ± 0.31 | 1334 ± 3 |  |  |  |  |  | 
CCCCCCCO [heptan-1-ol] | 5.048 ± 0.22 | 814.89 ± 0.29 | 1313 ± 3 | 3.712 ± 0.17 | 807.68 ± 0.3 | 1279 ± 3 |  |  |  |  |  | 
CCCCCCCCO [octan-1-ol] | 6.433 ± 0.26 | 818.38 ± 0.29 | 1334 ± 3 | 4.603 ± 0.2 | 811.05 ± 0.3 | 1304 ± 3 |  |  |  |  |  | 
Cc1ccccc1 [toluene] | 0.525 ± 0.029 | 856.62 ± 0.31 | 1289 ± 3 | 0.471 ± 0.027 | 847.03 ± 0.32 | 1256 ± 2 |  |  |  |  |  | 
Cc1ccccc1 [toluene] + CCCCCCCCCCO |  |  |  |  |  |  | 1289 ± 3 | 856.62 ± 0.31 | 0.525 ± 0.029 | 1256 ± 2 | 847.03 ± 0.32 | 0.471 ± 0.027
Cc1ccccc1 [toluene] + CCCCCCCCO |  |  |  |  |  |  | 1289 ± 3 | 856.62 ± 0.31 | 0.525 ± 0.029 | 1256 ± 2 | 847.03 ± 0.32 | 0.471 ± 0.027
Cc1ccccc1 [toluene] + CCCCCCCO |  |  |  |  |  |  | 1289 ± 3 | 856.62 ± 0.31 | 0.525 ± 0.029 | 1256 ± 2 | 847.03 ± 0.32 | 0.471 ± 0.027
